Source: the supplement of paper PMC10307832

Assays:
Experiment in all cases: relative viability (nuclei count vs DMSO), 5 days (fraction); higher = more cells survive
[1] = compound: C1=CC(=CC=C1C2=CC(=C(S2)NC(=O)N)C(=O)N)F [TPCA-1] + N=C(N)NC(=N)NCCc1ccccc1 [Phenformin] (partner 250 µM)
Outline: (§1)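 Values are medians from duplicate plates. Each reflects relative viability, defined as the nuclei count of treated wells over that of vehicle wells. Lung cancer cell lines in 1536-well plates were pin-tool dosed one day after seeding with one drug alone or with a fixed anchor-drug dose plus five library-drug doses (not always all listed) in √10 steps, then fixed, stained and imaged at 4× after 5 days.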

[2] = compound: C1=CC(=CC=C1C2=CC(=C(S2)NC(=O)N)C(=O)N)F [TPCA-1] + NC(=O)Nc1cc(-c2cccc(F)c2)sc1C(=O)N[C@H]1CCCNC1 [AZD7762] (partner 0.2 µM)
Outline: as §1

[3] = compound: C1=CC(=CC=C1C2=CC(=C(S2)NC(=O)N)C(=O)N)F [TPCA-1] + Cc1cc(Nc2cc(N3CCN(C)CC3)nc(Sc3ccc(NC(=O)C4CC4)cc3)n2)n[nH]1 [Tozasertib] (partner 0.1 µM)
Outline: as §1

[4] = compound: C1/C(=C\C2=CC=CS2)/C(=O)/C(=C/C3=CC=CS3)/C1 + CCNC(=O)c1noc(-c2cc(C(C)C)c(O)cc2O)c1-c1ccc(CN2CCOCC2)cc1 [Luminespib] (partner 0.01 µM)
Outline: as §1

Row | Cell Line | relative viability ([1]; first compound 0.04 µM) | relative viability ([1]; first compound 0.1265 µM) | relative viability ([1]; first compound 0.4 µM) | relative viability ([1]; first compound 1.265 µM) | relative viability ([1]; first compound 4 µM) | relative viability ([2]; first compound 0.04 µM) | relative viability ([2]; first compound 0.1265 µM) | relative viability ([2]; first compound 0.4 µM) | relative viability ([2]; first compound 1.265 µM) | relative viability ([2]; first compound 4 µM) | relative viability ([3]; first compound 0.04 µM) | relative viability ([3]; first compound 0.1265 µM) | relative viability ([3]; first compound 0.4 µM) | relative viability ([3]; first compound 1.265 µM) | relative viability ([3]; first compound 4 µM) | relative viability ([4]; first compound 0.2 µM) | relative viability ([4]; first compound 0.6325 µM) | relative viability ([4]; first compound 2 µM) | relative viability ([4]; first compound 6.325 µM) | relative viability ([4]; first compound 20 µM)
1 | HCC-827 | 0.384 | 0.385 | 0.404 | 0.367 | 0.353 | 0.209 | 0.209 | 0.227 | 0.224 | 0.181 | 0.472 | 0.42 | 0.389 | 0.443 | 0.272 | 0.85 | 0.608 | 0.454 | 0.592 | 0.636
2 | HOP-62 | 0.692 | 0.64 | 0.684 | 0.603 | 0.485 | 0.554 | 0.557 | 0.669 | 0.523 | 0.436 | 0.368 | 0.367 | 0.392 | 0.292 | 0.27 | 0.992 | 1.03 | 0.909 | 0.861 | 0.918
3 | LC-2-ad | 0.679 | 0.523 | 0.607 | 0.575 | 0.319 | 0.883 | 0.803 | 0.837 | 0.83 | 0.221 | 0.514 | 0.41 | 0.469 | 0.459 | 0.315 | 1.2 | 1.14 | 1.12 | 1.04 | 0.961
4 | LCLC-97TM1 | 0.44 | 0.394 | 0.414 | 0.294 | 0.386 | 0.231 | 0.237 | 0.223 | 0.164 | 0.217 | 0.242 | 0.261 | 0.223 | 0.185 | 0.117 | 0.734 | 0.813 | 0.754 | 0.782 | 0.803
5 | LCLC-103H | 0.335 | 0.321 | 0.345 | 0.332 | 0.357 | 0.896 | 0.84 | 0.824 | 0.617 | 0.8 | 0.488 | 0.405 | 0.515 | 0.513 | 0.321 | 1.05 | 0.901 | 1.07 | 0.936 | 0.989
6 | LK-2 | 0.868 | 0.236 | 0.444 | 0.603 | 0.206 | 0.593 | – | 0.53 | 0.392 | 0.131 | 0.167 | 0.176 | 0.187 | 0.172 | 0.16 | 0.166 | 0.187 | 0.177 | 0.202 | 0.212
7 | LOU-NH91 | 0.712 | 0.677 | 0.73 | 0.599 | 0.664 | 0.781 | 0.719 | 0.724 | 0.68 | 0.697 | 0.769 | 0.57 | 0.639 | 0.602 | 0.423 | 0.332 | 0.358 | 0.413 | 0.328 | 0.338
8 | NCI-H520 | 0.872 | 0.473 | 0.844 | 0.579 | 0.177 | – | – | – | – | – | 0.445 | 0.395 | 0.448 | 0.498 | 0.319 | 0.231 | 0.218 | 0.212 | 0.209 | 0.242
9 | NCI-H661 | 0.281 | 0.272 | 0.269 | 0.306 | 0.253 | – | – | – | – | – | 0.376 | 0.349 | 0.366 | 0.345 | 0.339 | 0.942 | 0.964 | 0.934 | 0.843 | 0.929
